Laboratory results: patent publication US20170340598A1, “Method of Reducing Uric Acid with Fucoxanthin-Containing Composition” (TCI Co., Ltd., priority 2016, published 2017)

Assays:
[1] = molecular target: xanthine oxidase (Homo sapiens, UniProt P47989); experiment: Evaluation of the inhibition of xanthine oxidase activity; assay type: biochemical; conditions: extract extracted for 120 minutes; fucoxanthin at the same concentration as the extract
Protocol: 50 μL of the test sample, 35 μL of phosphate buffer (70 mM, pH 7.5) and 30 μL of xanthine oxidase (0.02 units/mL) were mixed and shaken, and allowed to stand at room temperature for 15 minutes. Then, 60 μL of xanthine (150 μM) was added and allowed to react at room temperature for 30 minutes; the reaction was then stopped by the addition of 100 μL of the HCl (1N), followed by measuring absorbance at 290 nm. The inhibitory effect of the test sample against xanthine oxidase activity was evaluated and compared with the control group.

[2] = system: NOS2 (inducible nitric oxide synthase) gene; experiment: NOS2 gene expression in MSU-induced ADTC5 cells (qPCR); assay type: cell-based, mouse; conditions: extract 2 mg/ml, fucoxanthin 1 ppm, normalized to β-actin
Protocol: Next, the cells were treated with monosodium urate (MSU) (0.125 mg/ml, in medium) to induce uric acid crystallization. Cells were divided into three groups: Group 1 was treated with Ascophyllum nodosum extract extracted for 120 minutes (2 mg/ml, in medium); group 2 was treated with fucoxanthin (1 ppm, in medium); group 3 was untreated (the control group). […] Next, reverse transcription was performed using a SuperScript™ reverse transcription kit (Invitrogen). The NOS2 (inducible nitric oxide synthase) gene was quantified using the ABI StepOnePlus™ System (Applied Biosystems), and β-actin was used as a reference gene for normalizing each sample. It is known that accumulation of uric acid crystals in the joints causes inflammation in joint cavities, which leads to the increase of NOS2 gene expression in chondrocytes. Therefore, NOS2 gene expression levels were used to evaluate the degree of inflammation of cells caused by uric acid crystallization. […] Statistical analysis was performed by Student's t-test (Microsoft Excel software).

xanthine oxidase, sequence (P47989 whole entry, species assumed): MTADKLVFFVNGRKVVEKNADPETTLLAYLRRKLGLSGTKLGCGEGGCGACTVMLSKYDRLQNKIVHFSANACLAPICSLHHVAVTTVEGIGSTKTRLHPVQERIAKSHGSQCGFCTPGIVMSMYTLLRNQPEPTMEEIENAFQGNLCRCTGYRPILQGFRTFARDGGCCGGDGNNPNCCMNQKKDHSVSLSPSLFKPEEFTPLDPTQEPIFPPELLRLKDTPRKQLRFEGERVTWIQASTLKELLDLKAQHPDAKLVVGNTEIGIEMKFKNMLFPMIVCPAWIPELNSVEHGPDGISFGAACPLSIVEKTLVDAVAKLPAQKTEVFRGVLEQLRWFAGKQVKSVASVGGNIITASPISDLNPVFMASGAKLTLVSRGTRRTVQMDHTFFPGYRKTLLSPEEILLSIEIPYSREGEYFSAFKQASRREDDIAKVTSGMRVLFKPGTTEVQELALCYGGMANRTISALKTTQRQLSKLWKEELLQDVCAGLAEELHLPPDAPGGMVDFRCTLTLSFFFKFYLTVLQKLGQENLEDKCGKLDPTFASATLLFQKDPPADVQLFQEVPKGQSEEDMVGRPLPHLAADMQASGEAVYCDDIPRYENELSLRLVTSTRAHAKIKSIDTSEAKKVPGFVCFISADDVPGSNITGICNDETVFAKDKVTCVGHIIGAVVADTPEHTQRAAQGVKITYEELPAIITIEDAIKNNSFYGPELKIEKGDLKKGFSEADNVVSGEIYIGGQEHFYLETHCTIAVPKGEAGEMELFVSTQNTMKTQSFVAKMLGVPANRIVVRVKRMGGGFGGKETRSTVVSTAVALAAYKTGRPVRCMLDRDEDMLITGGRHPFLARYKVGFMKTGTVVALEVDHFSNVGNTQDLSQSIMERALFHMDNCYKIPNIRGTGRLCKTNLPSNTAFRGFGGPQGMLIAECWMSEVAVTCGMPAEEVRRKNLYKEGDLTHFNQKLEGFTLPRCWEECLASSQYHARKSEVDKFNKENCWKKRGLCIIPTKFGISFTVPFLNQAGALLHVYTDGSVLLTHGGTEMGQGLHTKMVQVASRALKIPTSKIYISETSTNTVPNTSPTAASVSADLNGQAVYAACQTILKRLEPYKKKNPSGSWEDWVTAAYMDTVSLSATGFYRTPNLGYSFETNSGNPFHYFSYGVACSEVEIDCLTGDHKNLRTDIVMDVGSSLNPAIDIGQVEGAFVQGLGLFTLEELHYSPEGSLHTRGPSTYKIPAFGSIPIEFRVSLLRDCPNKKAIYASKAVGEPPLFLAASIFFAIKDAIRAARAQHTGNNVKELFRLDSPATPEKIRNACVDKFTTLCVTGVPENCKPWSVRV

inhibition rate against xanthine oxidase [1]: 44%
SMILES: CC(=O)O[C@H]1CC(C)(C)C(=C=C/C(C)=C/C=C/C(C)=C/C=C/C=C(C)/C=C/C=C(\C)C(=O)C[C@@]23O[C@]2(C)C[C@@H](O)CC3(C)C)[C@](C)(O)C1 [fucoxanthin]
NOS2 gene expression level (MSU-induced group expressed as 1) ([2]; ADTC5 cells co-treated with MSU 0.125 mg/ml for 24 hours): 0.24 | NOS2 gene expression level (MSU-induced group expressed as 1) ([2]; ADTC5 cells co-treated with MSU 0.125 mg/ml for 48 hours): 0.12
